Data as given in publication PMC11505670, “Four newly synthesized enones induce mitochondrial-mediated apoptosis and G2/M cell cycle arrest in colorectal and cervical cancer cells” (RSC Advances, 2024).

What was measured:
Format in all cases: cell-based, human
HeLa cells [1] = assay: MTT cytotoxicity assay, HeLa; details: for Selectivity index (SI): IC50 healthy cells (MRC-5)/IC50 tumor cells; for Cytotoxicity range: concentration range 1–100 μM; for IC50: MTT
Method: (§1) To examine and compare the antiproliferative activities of four enones, the cytotoxicity of the compounds was assessed by the 3-(4,5-dimethylthiazol-2-yl)-2,5-diphenyltetrazolium bromide (MTT) assay[9] in, colon cancer cells (HCT-116), cervical cancer cell line (HeLa) and human fibroblast lung cell line (MRC-5) that was used as a healthy control cell line. After trypsinization, seeded (5 × 10^3 cells per well in 96-well plates) cells were treated with different concentrations of the investigated enones (1, 3, 10, 30, and 100 μM) during 48 and 72 h period incubation period +37 °C and 5–6.5% CO2. After the incubation period, the medium was removed and MTT solution (5 mg ml^−1) was added to the wells.
(§2) After a 3 hour incubation with the MTT solution, the resulting formazan crystals were dissolved in DMSO (67-68-5, Merck). Absorbance was subsequently measured at 595 nm using a microplate reader (Zenith 3100, Anthos Labtech Instruments). The percentage of cytotoxic cells was determined using the formula: cytotoxicity (%) = (1 − (exp. group (ABS))/(control group (ABS)) × 100). IC50 values were calculated using GraphPad Prism 10 software. The selectivity index (SI) was determined using the formula: SI?IC50 value for healthy cells/IC50 value for tumor cells.[9]

HCT-116 cells [2] = assay: MTT cytotoxicity assay, HCT-116; details: for percentage of cytotoxic HCT-116 cells compared to HeLa cells (fold) / percentage of cytotoxic HCT-116 cells compared to control MRC-5 cells (fold): 48 h, over the applied doses; for Cytotoxicity range: concentration range 1–100 μM; for Selectivity index (SI): IC50 healthy cells (MRC-5)/IC50 tumor cells; for IC50: MTT
Method: as §1, §2

MRC-5 cells = assay: MTT cytotoxicity assay, MRC-5 healthy control cells
Method: as §1, §2

HCT-116 cells [3] = assay: Annexin V-FITC/7-AAD apoptosis flow cytometry, HCT-116; details: IC50 concentration, 48 h
Method: (§3) The type of cell death was assessed using flow cytometry using FITC Annexin V Apoptosis Detection Kit with 7-AAD (640922, Bio legend).[8] […] After treatment, cells were harvested, washed with PBS (resuspended in 100 μl of ice-cold 1X binding buffer), stained (20 μl of 7-AAD and 10 μl of Annexin V-FITC), and incubated in the dark for 15 min at +4 °C. After incubation, 400 μl of binding buffer was added and the samples were analyzed using flow cytometer Cytomics FC500 (Beckman Coulter, USA). Data analysis was performed using FlowJo Software and presented with histogram and dot plots.

HeLa cells [4] = assay: Annexin V-FITC/7-AAD apoptosis flow cytometry, HeLa; details: IC50 concentration, 48 h
Method: as §3

[5] = test system: Bax and Bcl-2 in HCT-116 cells; assay: Flow cytometric analysis of Bax and Bcl-2 expression, HCT-116; details: HCT-116, IC50 concentration, 48 h, from MFI
Method: (§4) Cells were washed with PBS, fixed, permeabilized using Fixation and Permeabilization Kit (eBioscience), and stained separately for Bcl-2, Bax, and cleaved-caspase-3.[8,9] Permeabilized cells were incubated with primary antibodies: mouse anti-human-Bcl-2 (DC21, sc-783, Santa Cruz Biotech. Inc.), mouse anti-human Bax (N20, sc-493, Santa Cruz Biotech. Inc.), and anti-cleaved caspase-3 (Cell signaling Technology 9661). Following antibody incubation, cells were washed and incubated with secondary Alexa 488-conjugated antibodies (ab185015, Abcam, United Kingdom) for 30 minutes. After an additional wash with PBS, flow cytometry analysis was performed.
(§5) Data were analyzed using FlowJo Software. The expression of Bcl-2 and Bax proteins was quantified as mean fluorescence intensity (MFI). The results were presented with bar graphs. Bax/Bcl-2 index was calculated using the formula […]. The percentage of cells expressing active caspase-3 (MFI) was presented in histograms.

[6] = test system: Bax and Bcl-2 in HeLa cells; assay: Flow cytometric analysis of Bax and Bcl-2 expression, HeLa; details: IC50 concentration, 48 h; for Bax/Bcl-2 ratio: from MFI
Method: as §4, §5

[7] = test system: active caspase-3 in HCT-116 cells; assay: Flow cytometric analysis of active caspase-3, HCT-116; details: IC50 concentration, 48 h, vs control
Method: as §4, §5

[8] = test system: active caspase-3 in HeLa cells; assay: Flow cytometric analysis of active caspase-3, HeLa; details: IC50 concentration, 48 h, vs control
Method: as §4, §5

[9] = test system: mitochondrial membrane potential (ΔΨm) in HCT-116 cells; assay: Mitochondrial membrane potential (ΔΨm) JC-10 analysis, HCT-116; details: IC50 concentration, 48 h
Method: (§6) Changes in the ΔΨm caused by 48 hours of enones treatment, were assessed using JC-10 dye.[10]. (Enzo Life Sciences, Farmingdale, NY, USA).
(§7) In healthy cells, JC-10 dye accumulates in the mitochondria as red fluorescent aggregates. However, upon cell damage, changes in ΔΨm occur and result in dislocation of JC-10 from the mitochondria to the cytosol and the monomerization of aggregates, shifting fluorescence from red to green. Cells were cultured in 24-well plate (3 × 10^4 cells per well) overnight in the incubator (5% CO2, 37 °C). […] Following treatment, cells were washed with warm 1xPBS and incubated with JC-10 dye (2.5 μM in warm PBS) at 5% CO2, 37 °C for 20 minutes. Cells were then washed with 1xPBS and observed using an Olympus IX50 inverted fluorescence microscope. Images were captured and analyzed using ImageJ software. The ratio of fluorescence emissions at 525 and 590 nm was used for quantification analysis.

[10] = test system: mitochondrial membrane potential (ΔΨm) in HeLa cells; assay: Mitochondrial membrane potential (ΔΨm) JC-10 analysis, HeLa; details: IC50 concentration, 48 h
Method: as §6, §7

[11] = test system: cytochrome c in HCT-116 cells; assay: Cytochrome c localization by immunofluorescence, HCT-116; details: IC50 concentration, 48 h
Method: After 48 hours of treatment, immunofluorescence analysis of cytochrome c distribution and expression in treated cells was performed using glass coverslips.[10] Following the treatment, cells were washed with PBS, fixed in 4% formaldehyde for 20 min, and permeabilized with 0.2% Tween-20. Blocking was performed using a buffer containing 0.1% Tween-20 and 10% FBS for 30 min. The cells were then incubated for 1 hour at room temperature with a monoclonal mouse anti-human cytochrome c antibody (1:100, G7421, Promega, USA,)
Subsequently, the cells were incubated for 30 minutes with a goat anti-mouse FITC (1:200, diluted in blocking buffer), washed, and images were acquired using an inverted fluorescence microscope (Olympus IX50). Image analysis was performed using ImageJ software.

HCT-116 cells [12] = assay: Cell cycle analysis (PI, flow cytometry), HCT-116; details: IC50 concentration, 48 h; control 27.4%
Method: (§8) After treatment of HCT-116 and HeLa cells with enones, cells were harvested, washed with PBS, and fixed in 70% ice-cold ethanol at +4 °C overnight.[10] The cells were then pelleted, resuspended in 1 ml PBS containing RNAse A (12091021, Sigma Aldrich), and incubated for 30 min at 37 °C. A staining solution containing propidium iodide (1 mg PI per ml PBS) (B7758, Biotrend) was added to cells, followed by 15 min incubation in the dark. Cells were analyzed by flow cytometer Cytomics FC500. DNA content was determined using Flowing Software and cell cycle distribution was presented by graph (histograms).

HeLa cells [13] = assay: Cell cycle analysis (PI, flow cytometry), HeLa; details: IC50 concentration, 48 h; control 29.9%
Method: as §8

[14] = Homo sapiens, MRC5, MRC-5, 48 h
[15] = Homo sapiens, MRC5, MRC-5, 72 h

| SMILES | Selectivity index (SI) (HeLa cells [1]; 48 h) | Cytotoxicity range (HeLa cells [1]; 48 h) | Cytotoxicity range (HeLa cells [1]; 72 h) | IC50 (HeLa cells [1]; Homo sapiens, 48 h) [µM] | IC50 (HeLa cells [1]; Homo sapiens, 72 h) [µM] | Cytotoxicity range (HCT-116 cells [2]; HCT-116, 48 h) | Selectivity index (SI) (HCT-116 cells [2]; HCT-116, 48 h) | Cytotoxicity range (HCT-116 cells [2]; HCT-116, 72 h) | Selectivity index (SI) (HCT-116 cells [2]; HCT-116, 72 h) | IC50 (HCT-116 cells [2]; Homo sapiens, HCT-116, 48 h) [µM] | IC50 (HCT-116 cells [2]; Homo sapiens, HCT-116, 72 h) [µM] | IC50 (MRC-5 cells; [14]) [µM] | IC50 (MRC-5 cells; [15]) [µM] | increase of percentage of apoptotic HCT-116 cells compared to control HCT-116 cells (HCT-116 cells [3]) [fold] | percentage of total apoptotic HCT-116 cells (sum of early and late) (HCT-116 cells [3]) [%] | total percentage of apoptotic HeLa cells (HeLa cells [4]) [%] | Bax/Bcl-2 ratio [5] | Bax/Bcl-2 ratio [6] | JC10-green/JC10 red ratio in HCT-116 cells [9] | JC10-green/JC10 red ratio in HeLa cells [10] | also measured |
| --- | --- | --- | --- | --- | --- | --- | --- | --- | --- | --- | --- | --- | --- | --- | --- | --- | --- | --- | --- | --- | --- |
| COc1cc(/C=C/C(C)=O)ccc1OCC(=O)O [E1, (E)-2-(2-Methoxy-4-(3-oxobut-1-en-1-yl)phenoxy)acetic acid] | 8.67 | 3.12–39.24% | 39.35–61% | 17.3 ± 1.19 | 3.59 ± 0.03 | 11.23–72.91% | 24.75 | 65.85–73.44% | 58.03 | 6.06 ± 0.96 | 1.12 ± 0.01 | > 150 | > 65 | 8.5 | 59.5 | 43.03 | 1.8 | 1.1 | 1.6 | 1.4 | percentage of cytotoxic HCT-116 cells compared to HeLa cells (fold) (HCT-116 cells [2]): 1.8–3.6 fold; percentage of cytotoxic HCT-116 cells compared to control MRC-5 cells (fold) (HCT-116 cells [2]): 4.1–4.4 fold; Bcl-2 protein expression vs control cells ([6]; p < 0.05): decreased; MFI of active caspase-3 in HCT-116 (fold change) [7]: 2.1 fold change; MFI of active caspase-3 in HeLa (fold change) [8]: 1.9 fold change; RELATIVE RATIO OF CYTOSOL CYTC TO MITOCHONDRIAL CYT C IN HCT-116 CELLS [11]: 1.2; % OF HCT-116 CELLS, G2/M (HCT-116 cells [12]): 50.4%; % OF HELA CELLS, G2/M (HeLa cells [13]): 66.9% |
| COc1cc(/C=C/C(=O)CC(C)C)ccc1OCC(=O)O [E3, (E)-2-(2-Methoxy-4-(5-methyl-3-oxohex-1-en-1-yl)phenoxy)acetic acid] | 5.50 | 5.47–33.95% | 40.39–59.92% | 18.2 ± 1.33 | 3.96 ± 0.1 | 11.23–75.08% | 14.71 | 66.85–70.44% | 42.68 | 6.8 ± 1.01 | 1.64 ± 0.01 | > 100 | > 70 | 7.4 | 51.68 | 35.63 | 1.6 | 0.9 | 1.4 | 1.3 | Selectivity index (SI) (HeLa cells [1]; 72 h): 17.67; percentage of cytotoxic HCT-116 cells compared to HeLa cells (fold) (HCT-116 cells [2]): 2.05–2.1 fold; percentage of cytotoxic HCT-116 cells compared to control MRC-5 cells (fold) (HCT-116 cells [2]): 4.4–6.9 fold; RELATIVE RATIO OF CYTOSOL CYTC TO MITOCHONDRIAL CYT C IN HCT-116 CELLS [11]: 1.1; % OF HCT-116 CELLS, G2/M (HCT-116 cells [12]): 54.1%; % OF HELA CELLS, G2/M (HeLa cells [13]): 58.3% |
| COc1cc(/C=C/C(=O)C2CC2)ccc1OCC(=O)O [E4, (E)-2-(4-(3-Cyclopropyl-3-oxoprop-1-en-1-yl)-2-methoxyphenoxy)acetic acid] | 4.97 | 12.12–60.72% | 42.39–59.81% | 20.1 ± 1.19 | 4.12 ± 0.08 | 39.29–68.45% | 10.62 | 65.85–71.44% | 40.00 | 9.42 ± 1.78 | 2 ± 0.01 | > 100 | > 80 | 6.7 | 47.23 | 33.18 | 1.4 | 1 | 1.4 | 1.2 | Selectivity index (SI) (HeLa cells [1]; 72 h): 19.41; MFI of active caspase-3 in HCT-116 (fold change) [7]: 1.9 fold change; MFI of active caspase-3 in HeLa (fold change) [8]: 1.6 fold change; RELATIVE RATIO OF CYTOSOL CYTC TO MITOCHONDRIAL CYT C IN HCT-116 CELLS [11]: 0.9; % OF HCT-116 CELLS, G2/M (HCT-116 cells [12]): 41.4%; % OF HELA CELLS, G2/M (HeLa cells [13]): 61.9% |
| N.N.[Cl][Pt][Cl] [CP, Cisplatin, reference compound] |  |  |  |  |  |  |  |  |  |  |  |  |  |  |  | 42.38 |  |  |  |  | IC50 (HeLa cells [1]; 48 h): 16.5 µM; IC50 (HeLa cells [1]; 72 h): 3.62 ± 0.09 µM; IC50 (HCT-116 cells [2]; HCT-116, 48 h): 13.6 µM; IC50 (HCT-116 cells [2]; HCT-116, 72 h): 7.08 ± 0.13 µM; IC50 (MRC-5 cells; MRC-5, 48 h): > 30 µM; IC50 (MRC-5 cells; MRC-5, 72 h): > 85 µM |
